Our source for the IC50 values is patent US10975093B2, “Fused 1,4-diazepines as BET protein degraders” (THE REGENTS OF THE UNIVERSITY OF MICHIGAN, priority 2016, dated 2021).

Format in all cases: cell-based
One assay concerns RS4; 11. As to the kind of experiment: Cell growth inhibition, CellTiter-Glo Luminescent Cell Viability Assay, RS4;11. To be noted: Homo sapiens, 96 h, RS4;11 cells, 4 days incubation. How it is done: (§1) Cell growth inhibitory activity of representative Compounds of the Disclosure was determined in various cell lines using CellTiter-Glo® Luminescent Cell Viability Assay. Cells were seeded in 384-well white opaque cell culture plates at a density of 2,000 cells/well with serially diluted compounds and incubated at 37° C. in an atmosphere of 95% air and 5% CO2 for 4 days. Cell viability was determined using the CellTiter-Glo® Luminescent Cell Viability Assay Kit (Promega, Madison, Wis.) according to the manufacture's instruction. Briefly, a volume of CellTiter-Glo® Reagent equal to the volume of cell culture medium was added to each well, and then the plates were incubated at room temperature for 10-20 minutes. The luminescent signal was measured using a Tecan Infinite M1000 multimode microplate reader (Tecan, Morrisville, N.C.). The half maximal inhibitory concentration (IC50) was calculated using the GraphPad Prism 5 software (GraphPad Software, La Jolla, Calif.).
For orientation: Cellular ATP, detected with luciferase, serves as a proxy for viable cell number.

The test system of another assay is MOLM-13. The assay is described as follows: Cell growth inhibition, CellTiter-Glo Luminescent Cell Viability Assay, MOLM-13. The settings on record: Homo sapiens, MOLM-13 cells, 4 days incubation. In outline: (§2)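 IC50 values come from CellTiter-Glo ATP luminescence after a 4-day exposure to a compound dilution series. Seeding was 2,000 cells per well at 37° C under 5% CO2, with reagent read after 10-20 min at room temperature.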

The next assay has as its system MDA-MB-231. As to the kind of experiment: Cell growth inhibition, CellTiter-Glo Luminescent Cell Viability Assay, MDA-MB-231. To be noted: Homo sapiens, MDA-MB-231 cells, 4 days incubation. In short, it runs like this: as §2
A further assay relates to MDA-MB-468. As to the kind of experiment: Cell growth inhibition, CellTiter-Glo Luminescent Cell Viability Assay, MDA-MB-468. The settings on record: Homo sapiens, 96 h, MDA-MB-468 cells, 4 days incubation. How it is done: as §1

Turning to `Cc1c(C#Cc2cnn(CCCC#Cc3cccc4c3CN(C3CCC(=O)NC3=O)C4=O)c2)sc2c1C(c1ccc(Cl)cc1)=NCc1nnc(C)n1-2` (centres unmarked) [Cpd. No. 20, 3-(4-(5-(4-((4-(4-chlorophenyl)-3,9-dimethyl-6H-thieno[3,2-f][1,2,4]triazolo[4,3-a][1,4]diazepin-2-yl)ethynyl)-1H-pyrazol-1-yl)pent-1-yn-1-yl)-1-oxoisoindolin-2-yl)piperidine-2,6-dione], the IC50 with RS4; 11 was 0.1 nM; in the assay with MOLM-13 (MOLM-13, 96 h), 0.8 nM; with MDA-MB-231 (MDA-MB-231, 96 h), 0.08 nM; in the assay on MDA-MB-468, 0.2 nM.

For the molecule `Cc1c(C#Cc2cnn(CCCCNc3cccc4c3C(=O)N(C3CCC(=O)NC3=O)C4=O)c2)sc2c1C(c1ccc(Cl)cc1)=NCc1nnc(C)n1-2` (centres unmarked) [Cpd. No. 21, 4-((4-(4-((4-(4-chlorophenyl)-3,9-dimethyl-6H-thieno[3,2-f][1,2,4]triazolo[4,3-a][1,4]diazepin-2-yl)ethynyl)-1H-pyrazol-1-yl)butyl)amino)-2-(2,6-dioxopiperidin-3-yl)isoindoline-1,3-dione], the IC50 in the assay on RS4; 11 amounted to 0.3 nM; with MOLM-13 (MOLM-13, 96 h) it was 1.1 nM; in the assay with MDA-MB-231 (MDA-MB-231, 96 h), 3.8 nM; in the assay with MDA-MB-468, 6.5 nM.

`Cc1c(C#Cc2cnn(CCCCNc3cccc4c3C(=O)N(C3CCC(=O)NC3=O)C4=O)c2)sc2c1C(c1ccc(Cl)cc1)=N[C@@H](C)c1nnc(C)n1-2` (stereo partly drawn) [Cpd. No. 22, 4-((4-(4-(((S)-4-(4-chlorophenyl)-3,6,9-trimethyl-6H-thieno[3,2-f][1,2,4]triazolo[4,3-a][1,4]diazepin-2-yl)ethynyl)-1H-pyrazol-1-yl)butyl)amino)-2-(2,6-dioxopiperidin-3-yl)isoindoline-1,3-dione]: the IC50 in the assay on RS4; 11 was 0.2 nM; in the assay on MOLM-13 (MOLM-13, 96 h) it was 0.9 nM; in the assay with MDA-MB-231 (MDA-MB-231, 96 h) it was 0.9 nM; in the assay with MDA-MB-468 it was 1.8 nM.

Turning to `Cc1c(C#Cc2cnn(CCCCCc3cccc4c3CN(C3CCC(=O)NC3=O)C4=O)c2)sc2c1C(c1ccc(Cl)cc1)=NCc1nnc(C)n1-2` (centres unmarked) [Cpd. No. 23, 3-(4-(5-(4-((4-(4-chlorophenyl)-3,9-dimethyl-6H-thieno[3,2-f][1,2,4]triazolo[4,3-a][1,4]diazepin-2-yl)ethynyl)-1H-pyrazol-1-yl)pentyl)-1-oxoisoindolin-2-yl)piperidine-2,6-dione], the IC50 with RS4; 11 came out at 0.3 nM; in the assay with MOLM-13 (MOLM-13, 96 h) it was 1.9 nM; with MDA-MB-231 (MDA-MB-231, 96 h) it was 1.7 nM; in the assay on MDA-MB-468 it was 4.2 nM.

As to `Cc1c(C#Cc2cnn(CCCCCc3cccc4c3CN(C3CCC(=O)NC3=O)C4=O)c2)sc2c1C(c1ccc(Cl)cc1)=N[C@@H](C)c1nnc(C)n1-2` (stereo partly drawn) [Cpd. No. 24, 3-(4-(5-(4-(((S)-4-(4-chlorophenyl)-3,6,9-trimethyl-6H-thieno[3,2-f][1,2,4]triazolo[4,3-a][1,4]diazepin-2-yl)ethynyl)-1H-pyrazol-1-yl)pentyl)-1-oxoisoindolin-2-yl)piperidine-2,6-dione], the IC50 with RS4; 11 is less than 0.015 nM; with MOLM-13 (MOLM-13, 96 h), less than 0.015 nM; in the assay on MDA-MB-231 (MDA-MB-231, 96 h), less than 0.015 nM; in the assay with MDA-MB-468, less than 0.015 nM.

Consider `Cc1c(C#Cc2cnn(CCCC#Cc3cccc4c3C(=O)N(C3CCC(=O)NC3=O)C4=O)c2)sc2c1C(c1ccc(Cl)cc1)=NCc1nnc(C)n1-2` (centres unmarked) [Cpd. No. 25, 4-(5-(4-((4-(4-chlorophenyl)-3,9-dimethyl-6H-thieno[3,2-f][1,2,4]triazolo[4,3-a][1,4]diazepin-2-yl)ethynyl)-1H-pyrazol-1-yl)pent-1-yn-1-yl)-2-(2,6-dioxopiperidin-3-yl)isoindoline-1,3-dione], for which the 50% inhibitory concentration (IC50) was found to be 1 nM with RS4; 11; 9.1 nM with MOLM-13 (MOLM-13, 96 h); 24.2 nM with MDA-MB-231 (MDA-MB-231, 96 h); 34.9 nM in the assay with MDA-MB-468.

Consider `Cc1c(C#Cc2cn(CCCC#Cc3cccc4c3CN(C3CCC(=O)NC3=O)C4=O)cn2)sc2c1C(c1ccc(Cl)cc1)=NCc1nnc(C)n1-2` (centres unmarked) [Cpd. No. 26, 3-(4-(5-(4-((4-(4-chlorophenyl)-3,9-dimethyl-6H-thieno[3,2-f][1,2,4]triazolo[4,3-a][1,4]diazepin-2-yl)ethynyl)-1H-imidazol-1-yl)pent-1-yn-1-yl)-1-oxoisoindolin-2-yl)piperidine-2,6-dione], for which the half-maximal inhibitory concentration (IC50) in the assay with RS4; 11 is more than 10 nM; with MOLM-13 (96 h), 39.2 nM; in the assay with MDA-MB-231 (96 h), more than 100 nM; with MDA-MB-468, more than 100 nM.

In the case of `Cc1c(C#Cc2cn(CCCC#Cc3cccc4c3C(=O)N(C3CCC(=O)NC3=O)C4=O)cn2)sc2c1C(c1ccc(Cl)cc1)=NCc1nnc(C)n1-2` (centres unmarked) [Cpd. No. 27, 4-(5-(4-((4-(4-chlorophenyl)-3,9-dimethyl-6H-thieno[3,2-f][1,2,4]triazolo[4,3-a][1,4]diazepin-2-yl)ethynyl)-1H-imidazol-1-yl)pent-1-yn-1-yl)-2-(2,6-dioxopiperidin-3-yl)isoindoline-1,3-dione], the IC50 in the assay with RS4; 11 was more than 10 nM; with MOLM-13 (MOLM-13, 96 h) it was 32 nM; in the assay on MDA-MB-231 (MDA-MB-231, 96 h), more than 100 nM; in the assay with MDA-MB-468 it was more than 100 nM.

As for `Cc1c(C#Cc2cncn2CCCC#Cc2cccc3c2CN(C2CCC(=O)NC2=O)C3=O)sc2c1C(c1ccc(Cl)cc1)=NCc1nnc(C)n1-2` (centres unmarked) [Cpd. No. 28, 3-(4-(5-(5-((4-(4-chlorophenyl)-3,9-dimethyl-6H-thieno[3,2-f][1,2,4]triazolo[4,3-a][1,4]diazepin-2-yl)ethynyl)-1H-imidazol-1-yl)pent-1-yn-1-yl)-1-oxoisoindolin-2-yl)piperidine-2,6-dione], the IC50 with RS4; 11 was more than 10 nM; with MOLM-13 (MOLM-13, 96 h), 66.1 nM; in the assay with MDA-MB-231 (MDA-MB-231, 96 h), more than 100 nM; in the assay on MDA-MB-468, more than 100 nM.

With `Cc1c(C#Cc2cncn2CCCC#Cc2cccc3c2C(=O)N(C2CCC(=O)NC2=O)C3=O)sc2c1C(c1ccc(Cl)cc1)=NCc1nnc(C)n1-2` (centres unmarked) [Cpd. No. 29, 4-(5-(5-((4-(4-chlorophenyl)-3,9-dimethyl-6H-thieno[3,2-f][1,2,4]triazolo[4,3-a][1,4]diazepin-2-yl)ethynyl)-1H-imidazol-1-yl)pent-1-yn-1-yl)-2-(2,6-dioxopiperidin-3-yl)isoindoline-1,3-dione], the concentration for half-maximal inhibition (IC50) in the assay on RS4; 11 was 7 nM; with MOLM-13 (MOLM-13, 96 h) it was 22.8 nM; in the assay with MDA-MB-231 (MDA-MB-231, 96 h), more than 100 nM; with MDA-MB-468, more than 100 nM.

Regarding `Cc1c(C#Cc2cnn(CCCC#Cc3ccc(F)c4c3CN(C3CCC(=O)NC3=O)C4=O)c2)sc2c1C(c1ccc(Cl)cc1)=NCc1nnc(C)n1-2` (centres unmarked) [compound 142, 3-(4-(5-(4-((4-(4-chlorophenyl)-3,9-dimethyl-6H-thieno[3,2-f][1,2,4]triazolo[4,3-a][1,4]diazepin-2-yl)ethynyl)-1H-pyrazol-1-yl)pent-1-yn-1-yl)-7-fluoro-1-oxoisoindolin-2-yl)piperidine-2,6-dione], the IC50 turned out to be 1 nM with RS4; 11; 6.4 nM with MOLM-13 (MOLM-13, 96 h); 30.4 nM in the assay with MDA-MB-231 (MDA-MB-231, 96 h); 32.9 nM in the assay with MDA-MB-468.

One may read the IC50 as the concentration that inhibits the measured activity by half. Low readings indicate inhibition by little substance, high ones a need for much substance.
